Measured values published in patent US20060229255A1, “Identification of n-alkylglycine trimers for induction of apoptosis” (priority 2003, published 2006).

How the values were obtained:
T98g glioblastoma cells = experiment: BrdU incorporation assay (DNA synthesis); assay type: cell-based, human; settings: synchronized T98 g, 17 h + 2 h BrdU; read-out: IC50 BrdU incorporation (DNA synthesis inhibition)
Procedure: To confirm the G1 arrest of the cell cycle, we analyzed the DNA synthesis by an BrdU incorporation assay. Serial dilutions of the compounds N4-13-10C, N5-13-10C, N10-13-10C, N13-13-10C, etoposide or olomucine were assayed on synchronized T98 g cells as described in FIG. 7. A. Arrested cells were induced to cell cycle re-entry by re-addition of serum alone or with test compounds for 17 h, followed by 2 h in combination with 10 μM BrdU.
BrdU assay. T98g glioblastoma cells at 5000 cells/well in microtiter plates were arrested in G1-phase for 72 h by serum deprivation in MCDB 105 medium. By serum (10%) readdition, cells were treated with serial dilutions of the compounds for 17 h, and followed in combination 10 μM BrdU for […]. BrdU incorporation, i.e. DNA synthesis, was quantified with Cell Proliferation ELISA system, vs. 2 (AmershamPharmacia biotech) as described by the manufacturer.
FIG. 7. […] (A) T98 g cells were synchronized and reinitiated for 19 h with FCS alone or in combination with N10-13-10C (100 μM), N13-13-10C (100 μM), Olomucine (100 μM), etoposide (5 μM) or Taxol (30 nM). Cell cycle profile was assessed by propidium iodide DNA staining and analyzed by flow cytometry. The fraction of cells with G1, S, G2/M DNA content are shown as % of total cell population. (B. and C.) Synchronized T98 g cells were reinitiated with FCS alone or in combination with serial dilutions of N4-13-10C, N5-13-10C, N10-13-10C, N13-13-10C, Olomucine or etoposide for 19 h and labeled with BrdU during the last 2 h. BrdU incorporation was assessed by ELISA using anti-BrdU antibodies. An arbitrary value of 100% was assigned to the densiometric rate of DNA synthesis by untreated cultures and all other values are depicted relative to that reference. The values are means of three (n=3) replicates.

Cdk4/CycD1 = biological target: T1, Cdk4/CycD1 (Homo sapiens, UniProt P11802); experiment: 33PanQinase Cdk4/CycD1 kinase assay (pRb phosphorylation); assay type: biochemical; settings: 3 μM or 30 μM
T1 construct: GST; host or cells: Sf9 insect cells, baculovirus
T1 sequence (P11802 whole entry): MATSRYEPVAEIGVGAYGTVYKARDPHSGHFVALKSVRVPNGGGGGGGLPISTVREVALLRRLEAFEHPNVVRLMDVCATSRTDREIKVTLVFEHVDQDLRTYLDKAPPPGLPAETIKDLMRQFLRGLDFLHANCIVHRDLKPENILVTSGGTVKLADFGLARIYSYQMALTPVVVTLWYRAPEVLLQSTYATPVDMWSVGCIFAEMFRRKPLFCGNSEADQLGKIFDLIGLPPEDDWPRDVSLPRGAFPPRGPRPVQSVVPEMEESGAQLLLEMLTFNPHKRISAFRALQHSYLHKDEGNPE
T1 sequence (P24385 whole entry partner): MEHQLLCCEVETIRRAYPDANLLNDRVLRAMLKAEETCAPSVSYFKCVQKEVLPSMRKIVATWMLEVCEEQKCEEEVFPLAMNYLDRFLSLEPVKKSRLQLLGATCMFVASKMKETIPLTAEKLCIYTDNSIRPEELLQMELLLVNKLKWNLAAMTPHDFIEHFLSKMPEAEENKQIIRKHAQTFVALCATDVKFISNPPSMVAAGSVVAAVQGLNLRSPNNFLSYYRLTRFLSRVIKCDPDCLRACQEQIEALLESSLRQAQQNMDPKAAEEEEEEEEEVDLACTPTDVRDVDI
Procedure: ^33Pan Qinase assays containing cycD, Cdk4 and pRb protein in the presence of 3 μM or 30 μM, N10-13-10C or N13-13-10C, were performed.
To assay Cdk4/CycD1 kinase activity, Cdk4 was expressed in Sf9 insect cells as recombinant GST-fusion protein by means of baculovirus expression system. Kinase assay was performed in 96-well FlashPlates (NEN) in a 50 μl reaction volume using the ^33PanQinase activity assay (ProQinase) and Beckman Coulter/Sagian robotic system. The reaction cocktail was 20 μl of assay buffer (50 mM Hepes-NaOH pH 7.5, 3 mM MgCl2, 3 mM MnCl2, 3 μM Na-orthovanadate, 1 mM DTT, 0.1 μM […]); 1 μg pRb protein; 100 ng enzyme; and 5 μl of test compound in 10% DMSO. The reaction cocktail was incubated at 30° C. for 80 min. The reaction was stopped with 50 μl of 0.2% (v/v) H3PO4, plates were aspirated and washed two times with 0.9% (w/v) NaCl. Incorporation of ^33P was determined with a microplate scintillation counter (Microbeta, Wallac).

pRb, p21Cip1, p27Kip1 = experiment: Western blot of G0/G1 checkpoint proteins in HT29 cells; assay type: cell-based, human; settings: for pRb levels compared to controls: HT29, after 24 h in culture
Procedure: (§1) Western blotting. Floating and adherent cells were harvested and pellets were resuspended in RIPA buffer (50 mM Tris/HCl 7.4, 250 mM NaCl, 0,5% Igepal CA630, 5 mM EDTA, 1 mM PMSF, 10 μg/ml leupeptin, 50 mM NaF, 0.1 mM Na3VO4) or Deoxycholate buffer (10 mM phosphate buffer 7.4, […] NaCl, 0.5% Deoxycholate, 1% Igepal, 0.1% SDS, 1 mM PMSF). Protein concentration was determined with BCA Protein Assay Kit (Pierce) for RIPA extracts or Bradford assay (BioRad) for Deoxycholate extracts. Total protein (20-30 μg/lane) were separated by SDS-PAGE, transferred to PVDF membranes (Gellman), and probed with antibodies against Bcl-xL (Transduction); Bax (Santa Cruz); JNK (Santa Cruz); phospho-JNK (Cell Signaling); pRb (Pharmingen); pRb-phospho Ser780 (Cell Signalling); p130 (Santa Cruz); p107 (Santa Cruz); Cdk2 (Santa Cruz); p27^Kip1 (Santa Cruz); p21^Cip1 (Santa Cruz); actin (Sigma); or tubulin (ICN) and developed with ECL system (AmershamPharmacia biotech)
FIG. 8. Expression of protein involved in G0/G1 checkpoint. (A.) HT29 cells were treated for 1, 3, 6 and 24 h with N10-13-10C (40 μM) or N13-13-10C (35 µM), harvested and immunoblotted to assess total pRb levels or Cdk4 specific phosphorylation at pRb-Ser^780 (PpRb). Western blot was first probed with the pRb-Ser^780 phosphorylation specific antibody, was stripped and reprobed with the pan-pRb antibody and tubulin to normalize total protein level. (B.) T98 g cells were synchronized by serum starvation and reinitiated with 10% FCS and DMSO (C), N13-13-10C (100 μM) or Taxol (30 nM) for 15, 17, 24 or 29 h. Western blot of total protein extracts was probed with antibodies to p130, pRb, p107, Cdk2, cycA, p27, p21 and actin. Unphosphorylated, hypophosphorylated as well as hyperphosphorylated pRb are detected (arrows). (C.) HT29 cells treated for 24 and 48 h with N13-13-10C (40 μM) or DMSO as control. Immunoblots were stained with antibodies to Cdk2, cycA, p21, p27 and actin.

JNK = experiment: Western blot with JNK-phosphorylation specific antibody; assay type: cell-based, human; settings: HT29 cells
Procedure: as §1
FIG. 6. (A) JNK is activated after N13-13-10C treatment. HT29 cells were treated for 1, 3, 6 and 24 h with N13-13-10C (35 μM), harvested and immunoblotted to assess activation of SAP/JNK MAP kinase. Western blot was first probed with the JNK-phosphor specific antibody, was stripped and reprobed with the pan-JNK antibody and actin to normalize total protein level. […]

Row | Compound | IC50 (T98g glioblastoma cells) | Inhibition of pRb phosphorylation by cycD/Cdk4 (Cdk4/CycD1) | pRb levels compared to controls (pRb, p21Cip1, p27Kip1) | Time of JNK activation (phosphorylation) (JNK) | pRb phosphorylation at Ser780 respect to total pRb levels (pRb, p21Cip1, p27Kip1; HT29, 35 μM, 1-24 h) | p21Cip1 expression (pRb, p21Cip1, p27Kip1; HT29, 24 h and 48 h) | p27Kip1 expression (pRb, p21Cip1, p27Kip1; HT29, 24 h and 48 h)
1 | COc1ccc(CCN(CC(=O)N(CCc2ccccc2)CC(N)=O)C(=O)CNCCc2ccccc2)cc1 [N10-13-10C] | 100 µM | No inhibition | decreased |  |  |  | 
2 | COc1ccc(CCNCC(=O)N(CCc2ccc(OC)cc2)CC(=O)N(CCc2ccccc2)CC(N)=O)cc1 [N13-13-10C] | 150 µM | No inhibition | decreased | 3 to 6 h | did not decrease | Over expression | Over expression
